Test results: paper PMC11969438 (Inorganic Chemistry Frontiers, 2025)

How the values were obtained:
[1] = Body weight of treated animals; assay type: in vivo, CT-26-bearing BALB/c mice; settings: peritumoral application
Protocol: (§1) Tumor size was determined daily via manual caliper measurement. […] Animals were euthanized via cervical dislocation.

[2] = Cytokine and chemokine levels in plasma of treated animals, Luminex; assay type: in vivo, CT-26-bearing BALB/c mice; settings: 24 h after second dose
Protocol: Next, the ProcartaPlex (96-well) multiplex assay panel was performed according to the manufacturer's recommendations. In brief, the capture bead mix was incubated with test samples (undiluted SN or mouse plasma) or standard mix overnight. The SN of three independent experiments or the plasma of four animals per treatment group was loaded onto the multiplex assay plate. Next, biotinylated detection antibody mix and Streptavidin-PE were added to the plate. Following the recommended washing steps, the samples were incubated in a reading buffer and were measured using a Luminex xMAP platform (Bio-Plex MAGPIX Multiplex Reader; Bio-Rad Laboratories) and analyzed using xPONENT software.
as §1

albumin = biological target: T1, albumin (Bos taurus, UniProt P02769); experiment: Albumin binding in fetal calf serum, SEC-ICP-MS; assay type: in vitro ADME; settings: 50 μM in FCS, 37 °C, up to 24 h
T1 construct: Serum proteins have a retention span of ∼2–4 min as part of the high-molecular weight fraction with albumin at ∼4 min; tissue Sigma-Aldrich; host or cells: fetal calf serum (whole serum, buffered with 150 mM phosphate buffer pH 7.4)
T1 sequence (P02769 25-607): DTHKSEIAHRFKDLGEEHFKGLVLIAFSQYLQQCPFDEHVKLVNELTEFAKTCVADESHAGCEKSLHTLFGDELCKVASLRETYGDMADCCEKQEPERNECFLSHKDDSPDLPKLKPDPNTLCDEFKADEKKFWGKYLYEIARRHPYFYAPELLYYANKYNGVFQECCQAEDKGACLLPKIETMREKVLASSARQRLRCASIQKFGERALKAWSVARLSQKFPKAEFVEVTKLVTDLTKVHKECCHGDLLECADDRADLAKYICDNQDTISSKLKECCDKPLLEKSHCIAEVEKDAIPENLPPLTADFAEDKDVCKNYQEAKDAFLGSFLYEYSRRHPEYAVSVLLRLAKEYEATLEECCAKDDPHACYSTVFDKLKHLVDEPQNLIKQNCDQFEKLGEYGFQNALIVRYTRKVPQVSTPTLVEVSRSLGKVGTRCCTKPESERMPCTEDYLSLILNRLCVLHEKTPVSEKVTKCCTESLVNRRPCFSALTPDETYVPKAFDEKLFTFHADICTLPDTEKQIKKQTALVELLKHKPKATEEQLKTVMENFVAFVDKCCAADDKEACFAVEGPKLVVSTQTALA
Protocol: FCS was purchased from Sigma-Aldrich and buffered with 150 mM PB pH 7.4 to guarantee a stable pH. The platinum(IV) complexes were dissolved in 150 mM PB (pH 7.4) at a concentration of 5 mM and diluted 1 : 100 in the buffered serum to obtain a final concentration of 50 μM. The samples were then incubated in an autosampler at 37 °C and analyzed for 24 h. Between each sample, a pure water blank was measured. For SEC-ICP-MS measurements an Agilent 1260 Infinity system coupled to an Agilent 7800 ICP-MS equipped with a dynamic reaction cell was used. Oxygen (purity 5.5, Messer Austria GmbH, Gumpoldskirchen, Austria) was used as a reaction gas.

HCT116 cells = experiment: MTT-based cell viability assay, 72 h; parameters: species or system human; settings: without AA
Protocol: Cell models were seeded (2–2.5 × 10^3 cells per well) in 96-well plates. After 24 h of recovery, the compounds were applied at the concentrations indicated in triplicate. Cell viability was determined after 72 h of continuous drug incubation using an MTT-based cell viability assay (EZ4U, Biomedica, Vienna, Austria) according to the manufacturer's recommendations. Absorbance was measured at 450 nm (vs. 620 nm as reference) using a multimode microplate reader (Tecan Spark, Zurich, Switzerland). Half-maximal inhibitory concentrations (IC50 values) were derived via interpolation from dose–response curves, modeled with the four-parameter logistic (4PL) nonlinear regression model in GraphPad Prism (La Jolla, CA, USA) from at least three independent experiments.

COCCOCCOCCOCCNC(=O)[O][Pt-2]12([O]C(=O)CCC(=O)c3cc4cc(OC)c(OC)cc4s3)([NH2+][C@@H]3CCCC[C@H]3[NH2+]1)[O]C(=O)C(=O)[O]2 [Ox-MSA-PEG-Ca, (OC-6-34)-[(1R,2R)-1,2-cyclohexanediamino]-oxalato-[4-(5,6-dimethoxybenzo[b]thiophen-2-yl)-4-oxobutylcarboxylato]-[3,6,9,12-tetraoxatridecan-1-amino]platinum(IV)]
effect on body weights [1]: without negative effects on body weights
plasma IFN-β, IL-6 and M-CSF [2]: highest activations
ability to conjugate to albumin (albumin): lacked the ability to conjugate to albumin

O=C1[O][Pt]2([NH][C@@H]3CCCC[C@H]3[NH]2)[O]C1=O [oxaliplatin, reference compound]
IC50 (HCT116 cells): 800 nM
